# Measurements: Sander's compilation of Henry's law constants (doi:10.1021/je300954s)
# Assay: Henry solubility constant Hcp at 298.15 K (mol/(m3 Pa))
# Settings: reference: Lee et al. (2012)
row,SMILES,Henry solubility constant Hcp
1,"c1ccc2c(c1)Cc1ccccc1-2 [2,3-benzindene]",0.32
2,c1ccc2c(c1)-c1cccc3cccc-2c13 [benzo[jk]fluorene],0.34
3,CCCCOC(=O)c1ccccc1C(=O)OCc1ccccc1 [butyl benzyl phthalate],100
4,c1ccc2c(c1)cc1ccc3cccc4ccc2c1c34 [benzo[a]pyrene],6.2
5,c1ccc2cc3ccccc3cc2c1 [anthracene],0.16
6,"Cc1c([N+](=O)[O-])c(C)c([N+](=O)[O-])c(C(C)(C)C)c1[N+](=O)[O-] [2,4,6-trinitro-1,3-dimethyl-5-tert-butylbenzene]",0.32
7,c1cc2c3c(cccc3c1)CC2 [acenaphthene],0.26
8,c1ccc2c(c1)ccc1c3ccccc3ccc21 [chrysene],2.1
9,CC(=O)c1c(C)c([N+](=O)[O-])c(C(C)(C)C)c([N+](=O)[O-])c1C [musk ketone],3
10,c1ccc2c(c1)ccc1ccccc12 [phenanthrene],0.18
11,"Clc1cccc(Cl)c1Cl [1,2,3-trichlorobenzene]",0.008
12,c1ccc2ccccc2c1 [naphthalene],0.06
13,"Clc1cc(Cl)c(Cl)cc1Cl [1,2,4,5-tetrachlorobenzene]",0.0066
14,CCCCOC(=O)c1ccccc1C(=O)OCCCC [dibutyl phthalate],9.3
15,c1ccc2cc3c(cc2c1)-c1cccc2cccc-3c12 [benzo[k]fluoranthene],10
